# According to patent US20260060982A1, “USE OF BTK INHIBITOR AND SINGLE-DOSE DRUG” (HUBEI BIO-PHARMACEUTICAL INDUSTRIAL TECHNOLOGICAL INSTITUTE …, priority 2023, published 2026):
# Experiments:
# [1] = system: anti-DNP IgE-induced passive cutaneous anaphylaxis in BALB/c mice; assay: Passive cutaneous anaphylaxis (PCA) model in mice induced with anti-DNP IgE; assay type: in vivo
# From the text: Passive cutaneous anaphylaxis test, also known as PCA reaction, is a local allergic reaction caused by antibodies that bind to the same or different animal tissues. The PCA animal model in the present disclosure was a passive sensitization model in which IgE binds to specific receptors on skin mast cells. When allergens were stimulated, local mast cells released allergic mediators, thereby increasing local vascular permeability. […] The specific steps were as follows:
# The PCA model in mice was induced using anti-DNP IgE. Specifically, BALB/c mice were divided into 9 groups, namely, a normal control group (no administration, injection, or feeding of any solvent), a model group (no administration, injection, or feeding of any solvent), a prednisone group (10 mg/kg, administered for 3 consecutive days, QD (once a day), prednisone concentration of 1 mg/mL, and an administration volume of 10 mL/kg), a cetirizine group (20 mg/kg, administered for 3 consecutive days, QD, cetirizine concentration of 2 mg/mL, and an administration volume of 10 mL/kg), a low-dose group and a medium-dose group for the test substance LOU-064 (15 mg/kg and 45 mg/kg, administered for 3 consecutive days, BID (twice a day), LOU-064 concentrations of 1.5 mg/mL and 4.5 mg/mL, and an administration volume of 10 mL/kg), and a low-dose group, a medium-dose group, and a high-dose group for compound (I) (15 mg/kg, 45 mg/kg, and 90 mg/kg, administered for 3 consecutive days, BID, compound (I) concentrations of 1.5 mg/mL, 4.5 mg/mL, and 9 mg/mL, and an administration volume of 10 mL/kg), with 9 mice in each group, administered by gavage for a total of 4 days. On day 3 of the administration, anti-DNP IgE (Sigma-Aldrich) was injected into the left ears of 8 groups of mice (no normal control group), and the same volume of PBS was injected into the right ears of 8 groups and the left and right ears of the normal control group to allow it to bind to mast cells. Then, 24 hours after the fourth day of anti-DNP IgE injection, a mixed solution of antigen (DNP-HAS, Sigma) and pigment Evan's Blue (Sigma) (0.25 mL/mouse, i.v.) was injected into the tail vein (the normal control group was injected with the same volume of the mixed solution of antigen and pigment Evan's Blue). The antigen reacted with the antibody attached to the mast cells, causing a local allergic reaction, increased local vascular permeability, and pigment penetration into the tissue. The reaction intensity was determined by measuring the local pigment content 30 minutes later. The dye was extracted from the left and right ears, and the absorbance of Evan's blue was measured at a specific wavelength. […] The efficacy effects of each test substances in the PCA animal model were evaluated.
# [2] = system: collagen-induced arthritis in DBA/1 mice; assay: Collagen-induced arthritis (CIA) model in mice; assay type: in vivo
# Experimental: Clinical symptoms of arthritis were induced in mice by injecting collagen emulsion into the tail of mice. The specific steps were as follows:
# DBA/1 mice were randomly divided into 6 groups, with 10 mice in each group except the blank control group (5 mice). […] The day of the first immunization was recorded as day 0, and the subsequent days were marked in sequence. DBA/1 mice were anesthetized with isoflurane and injected subcutaneously with 50 μl of the prepared collagen emulsion (containing 200 μg of CII) at the tail (2 cm to 3 cm from the base of the tail). On day 21, the same volume of collagen emulsion was injected into the tail in the same way.
# On day 28, when the average clinical score reached 1 to 2, the mice were randomly redivided into 4 treatment groups (10 mice per group) and a blank vehicle control group (10 mice per group) according to body weight and score. […] The administration was performed once daily for 14 days by gavage at 10 mL/kg. After the administration, the clinical score curve of each animal in each group was analyzed to calculate the area under the curve (AUC). The inhibition rate of each administration group relative to the blank vehicle control was calculated based on the average AUC between groups.
# Clinical observation: From 7 days before immunization to 21 days after immunization, the basic health status and weight changes of DBA/1 mice were observed daily (recorded twice a week). After day 22, the health status, disease incidence, and weight changes of the mice were observed daily (recorded every two days) until the end of the experiment.
# When mice began to develop symptoms of arthritis (clinical symptoms of arthritis appeared), they were scored on a scale from 0 to 4 based on the severity of the lesions (redness, swelling, joint deformation), with a maximum score of 4 for each limb and a maximum score of 16 for each animal. The scoring was performed at least three times a week.
# Pathology: On day 42, mice were euthanized. The two hind limbs of the mice were taken, soaked in 10% formalin solution, decalcified with formic acid solution, embedded in paraffin, sectioned, stained with hematoxylin-eosin (HE), and observed under a microscope. The degree of joint damage was evaluated from four aspects: inflammatory cell infiltration, pannus formation, cartilage damage, and bone resorption, and scored on a scale from 0 to 4.
# [3] = system: PG-PS-induced arthritis in Lewis rats; assay: PG-PS-induced arthritis model in rats; assay type: in vivo
# From the text: Intraperitoneal injection of PG-PS suspension can effectively induce chronic, erosive, and relapsing symptoms similar to human rheumatoid arthritis in rats, and is often used to evaluate the in vivo effectiveness of medicaments in the early discovery of arthritis medicaments. The specific steps were as follows:
# On day 0, Lewis rats were randomly divided into 6 groups, with 5 rats in the first group and 10 rats in each group from the second group to the sixth group. All rats in the second to sixth groups were intraperitoneally injected with PG-PS (Lee Laboratories, PG-PS 10S, 5.1 mg/ml Rhamnose) to establish the model. The PG-PS injection dose v=15 μg/g×bw (rat weight, in g)/5.1 μg/μL.
# On day 1, the model rats (the second to sixth groups) were randomly redivided into 5 groups, with 10 rats in each group. The animals in each group were given the corresponding medicament or vehicle by gavage once a day until the 29th day. […] Clinical observations and clinical scoring were performed daily during the administration period. The ankle diameter of each animal after modeling was subtracted from its ankle diameter before modeling to obtain the ankle diameter difference (delta ankle diameter). The area under the curve (AUC) was calculated by analyzing the ankle diameter difference of each animal in each group. The inhibition rate of each administration group relative to the blank vehicle control was calculated by the average AUC between groups.
# Pathology: On day 30, the rats were euthanized. The two hind limbs of rats were stained with toluidine blue to evaluate the degree of joint damage in terms of inflammatory cell lesions, pannus formation, cartilage damage, bone resorption, and periosteal new bone formation, and the severity was scored on a scale from 0 to 7.
# [4] = system: IgM-induced calcium signaling in RAMOS cells; assay: Antagonism of IgM-induced calcium signaling in RAMOS cells (FLIPR); assay type: cell-based; conditions: Fluo-4D dye
# Experimental: The specific test steps were as follows:
# A. Ramos cells (ECACC) were seeded in a 384 experimental plate using cell culture medium (RPMI 1640 medium supplemented with 10% fetal bovine serum) at a density of 5×10^6 cells/mL, 20 μL per well.
# C. The cell plate and the compound plate were placed into FLIPR. 10 μL was transferred from the compound plate by the FLIPR instrument and added to the cell plate. The cell plate was removed and incubated in a 37° C. incubator for 1 h.
# D. One hour later, 40 μL of Fluo-4D dye (Life Technologies, formulated as 0.5× with 40 mL of HBSS and HEPES buffer) was added to the cell plate and incubated at 37° C. for 50 min.
# E. 10 μL of IgM at 8×EC80 concentration was added, and the plate was read using FLIPR.
# F. The IC50 results of the compounds were analyzed using EXCEL and Prism statistical software.
structure (smiles),measurement,setting,value
"C[C@]12C=CC(=O)C=C1CC[C@@H]1[C@@H]2C(=O)C[C@@]2(C)[C@H]1CC[C@]2(O)C(=O)CO [Prednisone, prednisone, reference compound]","Concentration of Evan's Blue, Left ear, Average value",[1]; 10 mg/kg QD by gavage,25.36 µg/mL
"O=C(O)COCCN1CCN(C(c2ccccc2)c2ccc(Cl)cc2)CC1 (stereo not shown) [Cetirizine, cetirizine, reference compound]","Concentration of Evan's Blue, Left ear, Average value",[1]; 20 mg/kg QD by gavage,22.70 µg/mL
"C=CC(=O)N(C)CCOc1c(N)ncnc1-c1cc(F)cc(NC(=O)c2ccc(C3CC3)cc2F)c1C [LOU-064, reference compound]","Concentration of Evan's Blue, Left ear, Average value",[1]; 15 mg/kg BID by gavage,24.45 µg/mL
same,"Concentration of Evan's Blue, Left ear, Average value",[1]; 45 mg/kg BID by gavage,17.24 µg/mL
"C=CC(=O)Nc1cccc(Nc2nc(Nc3ccc(OCCOC)cc3)ncc2F)c1 [CC-292, reference compound]",histopathological score compared with the blank vehicle control group,[2]; 3 mg/kg,not significantly different
same,inflammation inhibition rate (AUC of clinical score vs blank vehicle control),[2]; 3 mg/kg once daily by gavage for 14 days,29.1%
same,pathology of foot joint bone tissue,"[2]; 3 mg/kg, day 42",certain inflammation and more bone tissue damage
same,inhibition rate (AUC of ankle diameter difference vs blank vehicle control),[3]; 3 mg/kg once a day by gavage until the 29th day,−0.1%
same,joint tissue lesions (pathology),"[3]; 3 mg/kg, day 30",more severe
same,IC50,[4],171 ± 4.03 nM
